The nature of data set [1]: Plasma propofol pharmacokinetics in Beagle dogs after intravenous, subcutaneous or rectal prodrug. In kind it is in vivo. As for the experimental part: Upon administration, the test prodrug is converted in the body into propofol, its pharmacologically active metabolite. The pharmacokinetic profile, i.e. the blood plasma concentration of propofol derived from the test prodrug, was assessed in a separate experiment. Three male Beagle dogs (8.7-10.9 kg) received intravenous, subcutaneous, or rectal doses of the prodrug (see Tab. 1, below). Blood samples were taken at pre-dose, 2 (only for intravenous and subcutaneous), 5, 15, 30 minutes, 1, 1.5, 2, 3, 4, 6, and 8 hrs after administration of the test prodrug. Blood samples were centrifuged to obtain plasma and stored frozen until analysis. The outcome of this experiment is depicted in the following Table I: […]

Another data set concerns human subjects. Particulars: intravenous infusions; cited from earlier work.
For data set [2] the following is noted: anesthetic induction doses; cited from earlier work.
The mark [3] stands for this setting: Beagle dog 46, rectal, 16.8 mg/kg prodrug, first suppository expelled, second given, nominal dose used.
The mark [4] stands for this setting: Beagle dog 47, rectal, 15.7 mg/kg prodrug.
Where [5] appears, read: Beagle dog 48, rectal, 18.4 mg/kg prodrug.
[6] abbreviates: Beagle dogs, i.v., 16 mg/kg prodrug, average of 3 dogs.
Where [7] appears, read: Beagle dogs, i.v., 16 mg/kg prodrug, individual dogs 46, 47, 48, disodium salt, 16 mg/kg.
The mark [8] stands for this setting: Beagle dogs, rectal, 15.7-18.4 mg/kg prodrug, average of 3 dogs.
The mark [9] stands for this setting: Beagle dogs, subcut., 16 mg/kg prodrug, average of 3 dogs.
Setting [10] is: Beagle dogs, subcut., 16 mg/kg prodrug, individual dogs 46, 47, 48, disodium salt, 16 mg/kg.
Where [11] appears, read: rats, intravenous infusion over 10 minutes, 5-40 mg/kg.

“And” between values parts separate entries of the source, which are not always exact repeats. Equal values may be shown once. “Also recorded” adds a separate entry of the source.

Experimental for Sprague-Dawley rats: FIG. 2 illustrates the sedative/anesthetic effects of various doses of the experimental compound when administered via the intravenous route.
For comparison, an additional two animals received a subcutaneous injection of propofol (80 mg/kg) in its commercially available liquid emulsion formulation. For further comparison, the above-described pharmacological effects of subcutaneous administration of the tested prodrug were compared with those caused by an intravenous infusion: Under halothane anesthesia, young adult rats received femoral vein catheters which were exteriorized and attached to a liquid swivel via a protectant spring. About 20 minutes after catheterization, and after full behavioral recovery from halothane anesthesia, each animal was attached to an electronic infusion pump and was administered vehicle, or 5, 10, 20, 30, or 40 mg/kg of the test prodrug (n=2 per dose) in 1 ml total volume by gradual constant-rate intravenous infusion over 10 minutes. Behavioral rating as described above began immediately following the end of infusion.

In the case of `CC(C)c1cccc(C(C)C)c1OCOP(=O)([O-])[O-].[Na+].[Na+]` [O-phosphonooxymethyl propofol disodium salt], the “AUCLast of plasma propofol” value in data set [1] (setting [3]) was 471.4 ng·h/mL; in data set [1] (setting [4]), 204.5 ng·h/mL; in data set [1] (setting [5]), 46.7 ng·h/mL; in data set [1] (setting [6]), 1728 ± 256.0 ng·h/mL; in data set [1] (setting [7]), 1776 ng·h/mL and 1956 ng·h/mL and 1451 ng·h/mL; in data set [1] (setting [8]) it was 240.9 ± 214.7 ng·h/mL. The “AUCLast of plasma propofol” value in data set [1] (setting [9]) was 1322 ± 557.7 ng·h/mL; in data set [1] (setting [10]), 1781 ng·h/mL and 1484 ng·h/mL and 701.6 ng·h/mL. Also, the “Cmax of plasma propofol” value in data set [1] (setting [3]) is 220 ng/mL; in data set [1] (setting [4]), 170 ng/mL; in data set [1] (setting [5]), 90 ng/mL; in data set [1] (setting [6]), 3840 ± 1190 ng/mL; in data set [1] (setting [7]) it was 2570 ng/mL and 4930 ng/mL and 4010 ng/mL; in data set [1] (setting [8]), 160 ± 60 ng/mL. The “Cmax of plasma propofol” value is 390 ± 90 ng/mL in data set [1] (setting [9]); 460 ng/mL and 420 ng/mL and 290 ng/mL in data set [1] (setting [10]). For the same compound, the “Tmax of plasma propofol” value is 60 min in data set [1] (setting [3]); 15 min in data set [1] (setting [4]); 15 min in data set [1] (setting [5]); 1.8 min in data set [1] (setting [6]); 1.8 min in data set [1] (Beagle dogs, i.v., 16 mg/kg prodrug, individual dogs 46, 47, 48); 30 ± 25.8 min in data set [1] (setting [8]). Besides, the “Tmax of plasma propofol” value in data set [1] (setting [9]) is 60 ± 30 min; in data set [1] (setting [10]) it was 90 min and 60 min and 30 min. Also, in the data set with Sprague-Dawley rats (setting [11]), the “duration of effects relative to subcutaneous administration” value was “shorter duration compared to subcutaneous administration”. For the same compound, the “onset of sedated behavior relative to subcutaneous injection” value in the data set with Sprague-Dawley rats (setting [11]) is “even more rapidly than after subcutaneous-injection”. For the same compound, in the data set on Sprague-Dawley rats (rats, single subcutaneous injection, 50-300 mg/kg), the “onset of sedated behavior after dosing” value lay within 5 to 10 min. This compound also displayed a duration of sedation with Sprague-Dawley rats (rats, subcutaneous, 50 mg/kg) of 1 to 1.5 h. Besides, the “sedative effect compared to vehicle” value in the data set on Sprague-Dawley rats (rats, subcutaneous, 50 mg/kg) is given as “mild to moderate sedation”. In addition, in the data set on Sprague-Dawley rats (rats, subcutaneous, 100, 200 and 300 mg/kg dose groups), the “behavioral effect following sedation” value is recorded as “loss of consciousness”. Besides, in the data set on Sprague-Dawley rats (rats, subcutaneous, two highest dose groups (200 and 300 mg/kg)), the “duration of loss of consciousness” value is “more than two hours”. Also, the “time after administration until plateau effect is reached” value in the data set with Sprague-Dawley rats (subcutaneous administration) lay within 10 to 15 min. Besides, the “duration for which plateau effect is maintained” value in the data set on Sprague-Dawley rats (subcutaneous administration, depending on dose) is “up to about thirty minutes to two hours or longer”. Besides, the “potency of plasma propofol in suppressing EEG activity and causing a hypnotic effect, versus plasma propofol from infusions of propofol itself” value in the data set with human subjects is reported as “significantly more potent”.
`CC(C)c1cccc(C(C)C)c1O` [propofol, 2,6-diisopropylphenol]: the “patients with respiratory consequences, including reduction in tidal volume and apnea” value in data set [2] is listed as “up to 83%”. Further, the sedative effect result in the data set with Sprague-Dawley rats (rats, subcutaneous, 80 mg/kg, commercially available liquid emulsion formulation) is on record as “only very mild or no sedative effects; also recorded: none or only very mild sedation”.
